According to patent publication US20160058872A1, “IMIDE-BASED MODULATORS OF PROTEOLYSIS AND ASSOCIATED METHODS OF USE” (Arvinas, Inc., priority 2014, published 2016):

Test system: c-Myc
Experiment: c-Myc protein level by immunoblot in BL cell lines
Format: cell-based
Settings: 24 hours, washout
Protocol: Cultured cells were collected in lysis buffer containing 40 mM HEPES (pH 7.4), 140 mM NaCl, 2.5 mM EDTA, 1% NP-40, 0.1% SDS and protease inhibitor cocktail. After 10 minutes of centrifugation (14000 rpm), supernatant was collected for protein concentration determination by BCA method and subjected for immunoblotting by standard protocol. Western blot results were visualized using Bio-Rad Clarity ECL Western Blotting Substrate on Bio-Rad ChemiDoc™ MP imaging system.
A separate set of cells were treated in the same manner, except that DMSO was used in place of the inhibitor. Following treatment, cell lysates were collected and analyzed by immunoblot for c-Myc and Actin.
Cells were re-seeded and incubated without inhibitor for 0 hr, 0.5 hr, 1.0 hr, 2.0 hr, 3.0 hr, 4.0 hr, and 6.0 hr. Cell lysates were then collected at the various time points and analyzed by immunoblot for c-Myc and Actin. In a parallel control experiment, NAMALWA cells were treated in the same manner, except DMSO was used in place of JQ1.
After treatment, the cells were either lysed (to evaluate the suppression of c-Myc by the inhibitors) or washed to remove the inhibitor, re-seeded, and incubated without inhibitor for 4.0 hours (to evaluate the reversibility of c-Myc suppression). Cell lysates were collected and analyzed by immunoblot for c-Myc and Actin.
Following treatment, cell lysates were collected and analyzed by immunoblot for BRD4, c-Myc and Actin.
Cells were re-seeded in fresh medium and incubated without any compound for 0 hr, 2.0 hr, 4.0 hr, 6.0 hr, and 24.0 hr. In a parallel control experiment, cells were treated in the same manner, except DMSO was used in place of inhibitor. Lysates were collected and analyzed by immunoblot for BRD4, c-Myc, and Actin.

## Cc1sc2c(c1C)C(c1ccc(Cl)cc1)=N[C@@H](CC(=O)OC(C)(C)C)c1nnc(C)n1-2 [JQ1]
NAMALWA, 1.0 μM
  time to recovery of c-Myc to control level after removal: ≤ 4 h
NAMALWA, after 1000 nM
  time to return of c-Myc to control level post removal: ≤ 3.0 h
Ramos, after 1000 nM
  time to significant c-Myc increase after removal: ≤ 4.0 h
